What was measured:
Type in all cases: in vivo
[1] = tested on: prickly sida (Sida spinosa L.); assay: Test Example 2: soil application on the day after sowing, prickly sida; conditions: 250 g/ha active ingredient, observed 19th to 28th day after application; for inhibition at 250 g/ha: Sida spinosa, read-out: Growth inhibition rate (%) Prickly sida
Excerpt: (§1) Upland field soil was put into a 1/170,000 hectare pot, and seeds of various plants barnyardgrass (Echinochloa crus-galli L.), crabgrass (Digitaria sanquinalis L.), green foxtail (Setaria viridis L.), redroot pigweed (Amaranthus retroflexus L.), prickly sida (Sida spinosa L.), velvetleaf (Abutilon theophrasti MEDIC.), rice (Oryza sativa L.), wheat (Triticum spp.), corn (Zea mays L.) and soybean (Glycine max Merr.)) were sown. On the day after sowing, wettable powders or emulsifiable concentrates of the compounds of the above formula (I) prepared in accordance with a conventional preparation method, were weighed so that the active ingredients became the prescribed amounts, and diluted with water in an amount corresponding to 500 liter per 1 hectare, followed by soil application with a small sprayer.
(§2) On the 19th to 28th day after the application, the state of growth of the respective plants was visually observed, and the herbicidal effect was evaluated by a growth inhibition rate (%) of from 0 (equivalent to the non-treated area) to 100% (complete kill).

[2] = tested on: velvetleaf (Abutilon theophrasti MEDIC.); assay: Test Example 2: soil application on the day after sowing, velvetleaf; conditions: 250 g/ha active ingredient, observed 19th to 28th day after application; for inhibition at 250 g/ha: Abutilon theophrasti, read-out: Growth inhibition rate (%) Velvetleaf
Excerpt: as §1, §2

[3] = tested on: barnyardgrass (Echinochloa crus-galli L.); assay: Test Example 1: foliar treatment, upland pot test, barnyardgrass
Excerpt: (§3) Upland field soil was put into a 1/170,000 hectare pot, and seeds of various plants were sown. When the respective plants reached predetermined leaf stage ((1) barnyardgrass (Echinochloa crus-galli L.): 1.0 to 3.0 leaf stage, (2) crabgrass (Digitaria sanguinalis L.): 1.0 to 3.0 leaf stage, (3) green foxtail (Setaria viridis L.): 1.0 to 3.0 leaf stage, (4) redroot pigweed (Amaranthus retroflexus L.): cotyledon stage to 2.0 leaf stage, (5) prickly sida (Sida spinosa L.): cotyledon stage to 1.0 leaf stage, (6) velvetleaf (Abutilon theophrasti MEDIC.): 0.1 to 1.5 leaf stage, (7) rice (Oryza sativa L.): 1.0 to 3.0 leaf stage, (8) wheat (Triticum spp.): 1.7 to 3.4 leaf stage, (9) corn (Zea mays L.): 2.0 to 3.5 leaf stage, (10) soybean (Glycine max Merr.): primary leaf stage to 0.4 leaf stage), wettable powders or emulsifiable concentrates of the compounds of the above formula (I) prepared in accordance with a conventional preparation method, were weighed so that the active ingredients became the prescribed amounts, and diluted with water in an amount corresponding to 500 liter per 1 hectare (containing 0.1 vol % of “KUSARINOH”, manufactured by NIHON NOHYAKU CO., LTD. as an agricultural spreader). The spray solutions thus prepared were applied for foliar treatment by a small sprayer.
(§4) On the 17th to 25th day after application, the state of growth of the respective plants was visually observed, and the herbicidal effect was evaluated by a growth inhibition rate (%) of 0 (equivalent to the non-treated area) to 100% (complete kill).

[4] = tested on: velvetleaf (Abutilon theophrasti MEDIC.); assay: Test Example 1: foliar treatment, upland pot test, velvetleaf
Excerpt: as §3, §4

[5] = tested on: green foxtail (Setaria viridis L.); assay: Test Example 1: foliar treatment, upland pot test, green foxtail
Excerpt: as §3, §4

rice (Oryza sativa L.) [6] = assay: Test Example 1: foliar treatment, upland pot test, rice
Excerpt: as §3, §4

[7] = tested on: crabgrass (Digitaria sanquinalis L.); assay: Test Example 2: soil application on the day after sowing, crabgrass; conditions: 250 g/ha active ingredient, observed 19th to 28th day after application; for inhibition at 250 g/ha: Digitaria, read-out: Growth inhibition rate (%) Crabgrass
Excerpt: as §1, §2

wheat (Triticum spp.) [8] = assay: Test Example 1: foliar treatment, upland pot test, wheat
Excerpt: as §3, §4

[9] = tested on: redroot pigweed (Amaranthus retroflexus L.); assay: Test Example 2: soil application on the day after sowing, redroot pigweed; conditions: 250 g/ha active ingredient, observed 19th to 28th day after application; for inhibition at 250 g/ha: Amaranthus retroflexus, read-out: Growth inhibition rate (%) Redroot pigweed
Excerpt: as §1, §2

[10] = tested on: prickly sida (Sida spinosa L.); assay: Test Example 1: foliar treatment, upland pot test, prickly sida
Excerpt: as §3, §4

wheat (Triticum spp.) [11] = assay: Test Example 2: soil application on the day after sowing, wheat; conditions: 250 g/ha active ingredient, observed 19th to 28th day after application; for inhibition at 250 g/ha: Triticum, read-out: Growth inhibition rate (%) Wheat
Excerpt: as §1, §2

[12] = tested on: barnyardgrass (Echinochloa crus-galli L.); assay: Test Example 2: soil application on the day after sowing, barnyardgrass; conditions: 250 g/ha active ingredient, observed 19th to 28th day after application; for inhibition at 250 g/ha: Echinochloa crus-galli, read-out: Growth inhibition rate (%) Barnyardgrass
Excerpt: as §1, §2

corn (Zea mays L.) [13] = assay: Test Example 1: foliar treatment, upland pot test, corn
Excerpt: as §3, §4

[14] = tested on: redroot pigweed (Amaranthus retroflexus L.); assay: Test Example 1: foliar treatment, upland pot test, redroot pigweed
Excerpt: as §3, §4

rice (Oryza sativa L.) [15] = assay: Test Example 2: soil application on the day after sowing, rice; conditions: 250 g/ha active ingredient, observed 19th to 28th day after application; for inhibition at 250 g/ha: Oryza sativa, read-out: Growth inhibition rate (%) Rice
Excerpt: as §1, §2

corn (Zea mays L.) [16] = assay: Test Example 2: soil application on the day after sowing, corn; conditions: 250 g/ha active ingredient, observed 19th to 28th day after application; for inhibition at 250 g/ha: Zea mays, read-out: Growth inhibition rate (%) Corn
Excerpt: as §1, §2

[17] = tested on: crabgrass (Digitaria sanguinalis L.); assay: Test Example 1: foliar treatment, upland pot test, crabgrass
Excerpt: as §3, §4

[18] = tested on: soybean (Glycine max Merr.); assay: Test Example 2: soil application on the day after sowing, soybean; conditions: 250 g/ha active ingredient, observed 19th to 28th day after application; for inhibition at 250 g/ha: Glycine max, read-out: Growth inhibition rate (%) Soybean
Excerpt: as §1, §2

[19] = tested on: green foxtail (Setaria viridis L.); assay: Test Example 2: soil application on the day after sowing, green foxtail; conditions: 250 g/ha active ingredient, observed 19th to 28th day after application; for inhibition at 250 g/ha: Setaria viridis, read-out: Growth inhibition rate (%) Green foxtail
Excerpt: as §1, §2

[20] = tested on: soybean (Glycine max Merr.); assay: Test Example 1: foliar treatment, upland pot test, soybean
Excerpt: as §3, §4

[21] = 31 g/ha active ingredient, observed 17th to 25th day after application

SMILES | Growth inhibition rate (%) Prickly sida [1] [%] | Growth inhibition rate (%) Velvetleaf [2] [%] | Growth inhibition rate (%) Barnyardgrass [3, 21] [%] | Growth inhibition rate (%) Velvetleaf [4, 21] [%] | Growth inhibition rate (%) Green foxtail [5, 21] [%] | Growth inhibition rate (%) Rice (rice (Oryza sativa L.) [6]; [21]) [%] | Growth inhibition rate (%) Crabgrass [7] [%] | Growth inhibition rate (%) Wheat (wheat (Triticum spp.) [8]; [21]) [%] | Growth inhibition rate (%) Redroot pigweed [9] [%] | Growth inhibition rate (%) Prickly sida [10, 21] [%] | Growth inhibition rate (%) Wheat (wheat (Triticum spp.) [11]) [%] | Growth inhibition rate (%) Barnyardgrass [12] [%] | Growth inhibition rate (%) Corn (corn (Zea mays L.) [13]; [21]) [%] | Growth inhibition rate (%) Redroot pigweed [14, 21] [%] | Growth inhibition rate (%) Rice (rice (Oryza sativa L.) [15]) [%] | Growth inhibition rate (%) Corn (corn (Zea mays L.) [16]) [%] | Growth inhibition rate (%) Crabgrass [17, 21] [%] | Growth inhibition rate (%) Soybean [18] [%] | Growth inhibition rate (%) Green foxtail [19] [%] | Growth inhibition rate (%) Soybean [20, 21] [%] | also measured
COCCOc1c(S(C)(=O)=O)ccc(C(=O)c2c(C)nn(C)c2O)c1C [compound 259] | 0 | 70 | 95 | 98 | 100 | 70 | 100 | 0 | 90 | 60 | 0 | 10 | 0 | 95 | 10 | 0 | 95 | 20 | 60 | 95 | 
CCn1ncc(C(=O)c2ccc(S(C)(=O)=O)c(OCCC3OCCO3)c2Cl)c1O [compound 244] |  |  |  |  |  |  |  |  |  |  |  |  |  |  |  |  |  |  |  |  | inhibition at 250 g/ha [1]: 60%; inhibition at 250 g/ha [2]: 80%; inhibition at 63 g/ha ([3]; Echinochloa crus-galli, 63 g/ha active ingredient, observed 21st day after application, read-out: Growth inhibition rate (%) Barnyardgrass): 50%; inhibition at 63 g/ha ([4]; Abutilon theophrasti, 63 g/ha active ingredient, observed 21st day after application, read-out: Growth inhibition rate (%) Velvetleaf): 70%; inhibition at 63 g/ha ([5]; Setaria viridis, 63 g/ha active ingredient, observed 21st day after application, read-out: Growth inhibition rate (%) Green foxtail): 40%; inhibition at 63 g/ha (rice (Oryza sativa L.) [6]; Oryza sativa, 63 g/ha active ingredient, observed 21st day after application, read-out: Growth inhibition rate (%) Rice): 10%; inhibition at 250 g/ha [7]: 90%; inhibition at 63 g/ha (wheat (Triticum spp.) [8]; Triticum, 63 g/ha active ingredient, observed 21st day after application, read-out: Growth inhibition rate (%) Wheat): 0%; inhibition at 250 g/ha [9]: 90%; inhibition at 63 g/ha ([10]; Sida spinosa, 63 g/ha active ingredient, observed 21st day after application, read-out: Growth inhibition rate (%) Prickly sida): 50%; inhibition at 250 g/ha (wheat (Triticum spp.) [11]): 0%; inhibition at 250 g/ha [12]: 100%; inhibition at 63 g/ha (corn (Zea mays L.) [13]; Zea mays, 63 g/ha active ingredient, observed 21st day after application, read-out: Growth inhibition rate (%) Corn): 0%; inhibition at 63 g/ha ([14]; Amaranthus retroflexus, 63 g/ha active ingredient, observed 21st day after application, read-out: Growth inhibition rate (%) Redroot pigweed): 80%; inhibition at 250 g/ha (rice (Oryza sativa L.) [15]): 80%; inhibition at 250 g/ha (corn (Zea mays L.) [16]): 0%; inhibition at 63 g/ha ([17]; Digitaria sanguinalis, 63 g/ha active ingredient, observed 21st day after application, read-out: Growth inhibition rate (%) Crabgrass): 20%; inhibition at 250 g/ha [18]: 0%; inhibition at 250 g/ha [19]: 70%; inhibition at 63 g/ha ([20]; Glycine max, 63 g/ha active ingredient, observed 21st day after application, read-out: Growth inhibition rate (%) Soybean): 70%
COc1c(S(C)(=O)=O)ccc(C(=O)c2cnn(C)c2O)c1C [compound 143] |  |  |  |  |  |  |  |  |  |  |  |  |  |  |  |  |  |  |  |  | inhibition at 250 g/ha [1]: 90%; inhibition at 250 g/ha [2]: 100%; inhibition at 31 g/ha ([3]; Echinochloa crus-galli, 31 g/ha active ingredient, observed 17th to 25th day after application, read-out: Growth inhibition rate (%) Barnyardgrass): 10%; inhibition at 31 g/ha ([4]; Abutilon theophrasti, 31 g/ha active ingredient, observed 17th to 25th day after application, read-out: Growth inhibition rate (%) Velvetleaf): 98%; inhibition at 31 g/ha ([5]; Setaria viridis, 31 g/ha active ingredient, observed 17th to 25th day after application, read-out: Growth inhibition rate (%) Green foxtail): 70%; inhibition at 31 g/ha (rice (Oryza sativa L.) [6]; Oryza sativa, 31 g/ha active ingredient, observed 17th to 25th day after application, read-out: Growth inhibition rate (%) Rice): 40%; inhibition at 250 g/ha [7]: 100%; inhibition at 31 g/ha (wheat (Triticum spp.) [8]; Triticum, 31 g/ha active ingredient, observed 17th to 25th day after application, read-out: Growth inhibition rate (%) Wheat): 10%; inhibition at 250 g/ha [9]: 100%; inhibition at 31 g/ha ([10]; Sida spinosa, 31 g/ha active ingredient, observed 17th to 25th day after application, read-out: Growth inhibition rate (%) Prickly sida): 70%; inhibition at 250 g/ha (wheat (Triticum spp.) [11]): 70%; inhibition at 250 g/ha [12]: 100%; inhibition at 31 g/ha (corn (Zea mays L.) [13]; Zea mays, 31 g/ha active ingredient, observed 17th to 25th day after application, read-out: Growth inhibition rate (%) Corn): 0%; inhibition at 31 g/ha ([14]; Amaranthus retroflexus, 31 g/ha active ingredient, observed 17th to 25th day after application, read-out: Growth inhibition rate (%) Redroot pigweed): 80%; inhibition at 250 g/ha (rice (Oryza sativa L.) [15]): 100%; inhibition at 250 g/ha (corn (Zea mays L.) [16]): 20%; inhibition at 31 g/ha ([17]; Digitaria sanguinalis, 31 g/ha active ingredient, observed 17th to 25th day after application, read-out: Growth inhibition rate (%) Crabgrass): 70%; inhibition at 250 g/ha [18]: 80%; inhibition at 250 g/ha [19]: 100%; inhibition at 31 g/ha ([20]; Glycine max, 31 g/ha active ingredient, observed 17th to 25th day after application, read-out: Growth inhibition rate (%) Soybean): 60%
CCCOC(=O)c1c(S(C)(=O)=O)ccc(C(=O)c2cnn(CC)c2O)c1Cl [compound 154] | 60 | 40 | 40 | 60 | 60 | 50 | 95 | 0 | 100 | 40 | 0 | 100 | 0 | 70 | 50 | 0 | 70 | 0 | 30 | 30 | 
CCc1nn(C)c(O)c1C(=O)c1ccc(S(C)(=O)=O)c(OCCOC)c1C [compound 261] | 20 | 30 | 90 | 95 | 80 | 80 | 95 | 5 | 100 | 50 | 0 | 50 | 0 | 95 | 20 | 20 | 90 | 0 | 60 | 50 | 

Source: patent publication US20100317528A1, “HERBICIDE CONTAINING BENZOYLPYRAZOLE COMPOUND” (ISHIHARA SANGYO KAISHA, LTD., priority 2006, published 2010)
